According to patent publication US20040224884A1, “Methods of screening for apoptosis-controlling agents for bone anabolic therapies and uses thereof” (priority 1998, published 2004):

Tests used:
[1] = tested on: osteoblastic cells derived from murine calvaria; assay: Etoposide-induced apoptosis of osteoblastic cells, trypan blue uptake; format: cell-based
Protocol: Osteoblastic cells derived from murine calvaria were pretreated with the sterols for 1 hour before the addition of the pro-apoptotic agent, etoposide. Apoptosis was determined after 6 hours by trypan blue uptake (Jilka et al, J. Bone and Min. Res. 13:793:802, 1998). * indicates p<0.05 versus etoposide alone, by analysis of variance (ANOVA) (Student-Newman-Keuls method).
Osteoblastic cells derived from murine calvaria were pretreated for 1 hour with the pure receptor antagonist ICI182,780 (10^−7 M) before the addition of the test agents (10^−8 M). Apoptosis was induced and quantified as described in FIG. 3. * indicates p<0.05 versus etoposide alone, by ANOVA (Student-Newman-Keuls method).
In this experiment, osteoblastic cells were derived from murine calvaria and were pretreated with the sterols for 1 hour before the addition of the pro-apoptotic agent, etoposide.
In these experiments, cells were pretreated with the indicated concentrations of the various compounds for 1 hour, in the absence or presence of the androgen receptor antagonist flutamide, before the addition of the proapoptotic agent etoposide. Apoptosis was determined after 6 hours by trypan blue uptake as described in FIG. 3.

[2] = biological target: T1, murine estrogen receptor-beta (mERβ) (Mus musculus, UniProt O08537); assay: Etoposide-induced apoptosis in HeLa cells stably transfected with mERβ; format: cell-based, human; details: 10^−8 M, 1 h; etoposide 5×10^−5 M, 6 hour
T1 construct: expressed in transfected cells
T1 sequence (O08537 whole entry): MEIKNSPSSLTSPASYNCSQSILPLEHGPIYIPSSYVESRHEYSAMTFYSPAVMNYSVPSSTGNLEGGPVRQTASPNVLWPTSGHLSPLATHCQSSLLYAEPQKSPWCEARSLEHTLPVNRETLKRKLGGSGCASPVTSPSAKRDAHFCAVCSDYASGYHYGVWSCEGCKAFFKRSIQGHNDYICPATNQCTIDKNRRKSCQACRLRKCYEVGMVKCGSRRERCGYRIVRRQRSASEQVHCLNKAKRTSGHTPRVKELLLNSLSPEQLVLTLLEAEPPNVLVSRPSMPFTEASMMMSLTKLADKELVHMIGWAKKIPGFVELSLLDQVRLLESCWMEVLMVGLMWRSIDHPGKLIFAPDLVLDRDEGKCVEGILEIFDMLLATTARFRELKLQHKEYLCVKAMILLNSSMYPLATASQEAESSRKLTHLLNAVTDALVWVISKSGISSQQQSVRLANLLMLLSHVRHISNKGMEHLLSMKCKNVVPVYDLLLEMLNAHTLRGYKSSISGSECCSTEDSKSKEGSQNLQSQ
Description: CMV promoter alone and CMV promoter-driven cDNA for mERα or mErβ were stably transfected into HeLa cells. […] Cells were trypsinized, pelleted and trypan blue positive cells enumerated.
In this experiment, instead of calvaria cells, human HeLa cells which contain undetectable, if any, estrogen receptor were used. HeLa cells were stably transfected with either a CMV promoter-driven cDNA for the murine estrogen receptor-alpha (mERα) or a CMV promoter-driven cDNA for the murine estrogen receptor-beta (mERβ). […] Cells were trypsinized, pelleted and trypan blue positive cells were enumerated.

human ERα = biological target: T2, human ERα (Homo sapiens, UniProt P03372); assay: ERE-luciferase reporter in 293 cells overexpressing hERα; format: cell-based; details: 3 copies of ERE driving luciferase
T2 construct: expressed in transfected cells; host or cells: 293 human embryonic kidney cells
T2 sequence (P03372 1-595): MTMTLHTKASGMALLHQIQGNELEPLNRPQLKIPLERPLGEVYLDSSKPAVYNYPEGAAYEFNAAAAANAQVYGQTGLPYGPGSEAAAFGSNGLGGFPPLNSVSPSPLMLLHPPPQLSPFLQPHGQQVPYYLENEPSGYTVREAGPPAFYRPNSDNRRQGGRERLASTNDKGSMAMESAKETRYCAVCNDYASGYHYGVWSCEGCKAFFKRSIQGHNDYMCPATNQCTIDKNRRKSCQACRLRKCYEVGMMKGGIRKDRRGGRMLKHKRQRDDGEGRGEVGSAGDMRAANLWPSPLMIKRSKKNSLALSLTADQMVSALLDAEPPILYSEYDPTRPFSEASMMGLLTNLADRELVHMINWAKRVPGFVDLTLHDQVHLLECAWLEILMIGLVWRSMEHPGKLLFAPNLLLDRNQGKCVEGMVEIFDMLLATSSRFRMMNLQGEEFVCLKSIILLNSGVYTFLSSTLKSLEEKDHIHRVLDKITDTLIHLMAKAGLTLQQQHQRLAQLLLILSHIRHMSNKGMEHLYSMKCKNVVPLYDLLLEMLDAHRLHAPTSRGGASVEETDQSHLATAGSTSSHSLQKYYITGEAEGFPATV
Description: The human ERα was overexpressed in 293 cells lacking ERα along with a reporter construct containing 3 copies of a n estrogen response element driving the luciferase gene. Light units were counted and normalized to coexpressed b-galactosidase activity to control for differences in transfection efficiency. Results represent percent stimulation compared to ERα transfected cells, but not treated with the two agents. Each bar represents mean of duplicate experiments +/−SEM. *p<0.001 vs. cells not exposed to the sterols.
In this experiment, hERα was overexpressed in 293 cells (which lack constitutive ERα) along with a reporter construct containing 3 copies of an estrogen response element driving the luciferase gene. Light units were counted and normalized to coexpressed β-galactosidase activity to control for differences in transfection efficiency.

Question: Which “potency in inhibiting apoptosis relative to 17β estradiol” value [1] does the source give for `C[C@@]12CCC[C@H]1[C@@H]1CCc3cc(O)ccc3[C@H]1CC2` [estratriene-3-ol] here?
Answer: as potent a s 17β estradiol

Question: And the “inhibition of etoposide-induced osteoblastic cell apoptosis” value ([1]; pretreated 1 hour before etoposide, apoptosis after 6 hours by trypan blue uptake)?
Answer: inhibition of etoposide-induced osteoblastic cell apoptosis was demonstrated

Question: And the “anti-apoptotic effect on osteoblastic cells after pretreatment with ICI182,780” value ([1]; test agent 10^−8 M, ICI182,780 10^−7 M, 1 h pretreatment)?
Answer: abrogated

Question: And the “inhibition of etoposide-induced apoptosis in HeLa cells transfected with estrogen receptor β” value [2]?
Answer: potently inhibited

Question: And the “transactivation of an estrogen response element through estrogen receptor α” value (human ERα)?
Answer: did not transactivate
